We go through 1 compound from US20070014692A1, “Method and apparatus for measurement of binding between a protein and a nucleotide” (priority 1998, published 2007).

In the test the target is T1, human estrogen receptor binding to the ERE (estrogen response element from Xenopus Vitellogenen A2 Gene) (Homo sapiens, UniProt P03372).
T1 construct: ubiquitin (gene fusion); host or cells: Saccharomyces cerevisiae strain AF103, YEpE10 plasmid, CUP1 promoter
Briefly: Evanescent fiber optic sensor with ERE fiber: binding of Cy5-tagged hER to estrogen response element in the presence of compound (S/C).

SMILES strings stand for the structures.

T1 sequence (P03372 whole entry, the tested form may be a part): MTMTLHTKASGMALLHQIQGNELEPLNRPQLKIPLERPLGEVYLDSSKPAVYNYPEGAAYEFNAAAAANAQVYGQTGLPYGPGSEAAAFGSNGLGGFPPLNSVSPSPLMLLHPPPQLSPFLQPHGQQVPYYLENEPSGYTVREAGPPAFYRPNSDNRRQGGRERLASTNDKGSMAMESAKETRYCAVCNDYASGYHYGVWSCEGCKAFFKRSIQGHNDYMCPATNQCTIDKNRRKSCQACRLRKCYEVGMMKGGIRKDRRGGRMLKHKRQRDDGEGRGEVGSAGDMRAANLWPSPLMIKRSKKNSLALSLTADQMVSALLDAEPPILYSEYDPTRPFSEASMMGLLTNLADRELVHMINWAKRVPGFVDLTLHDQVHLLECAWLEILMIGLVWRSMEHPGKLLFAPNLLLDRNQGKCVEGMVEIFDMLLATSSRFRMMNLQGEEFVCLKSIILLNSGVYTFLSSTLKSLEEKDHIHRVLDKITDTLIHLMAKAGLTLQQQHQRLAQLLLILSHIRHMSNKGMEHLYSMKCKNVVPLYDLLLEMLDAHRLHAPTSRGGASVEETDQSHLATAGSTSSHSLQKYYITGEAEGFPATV

For `C[C@H]1CCCC(=O)CCC/C=C/c2cc(O)cc(O)c2C(=O)O1` [zearalenone], the “effect on binding of receptor to the ERE fiber, in words” value (10^−6M compound) is “increase binding to the ERE more than do the weak biological estrogens”. The “Response of ERE fiber to hER and 10^−6M compound (control = 3.51)” value (S/C value, control = 3.51) amounted to 5.01.
